In US12157745B2, “Heterocyclic systems and pharmaceutical compositions thereof” (University of Sharjah, priority 2018, dated 2024):

Tests used:
Type in all cases: cell-based
[1] = tested on: MCF7 cells; test: Cell synchronization study, antiproliferative effect on synchronized cells
Description: (§1) Cell synchronization and tubulin study: The antiproliferative effect of the compound it was tested on MCF7 cells which were synchronized at specific phases of the cell cycle. […] One way of inhibiting cell proliferation in G2/M phase is by altering equilibrium between polymerization and depolymerization of microtubule proteins which is required for active mitotic cell division.

[2] = tested on: MCF-7 cells; test: Cell cycle analysis (propidium iodide, flow cytometry); settings: after 16, 24, 48, and 72 hours of treatment
Description: Apoptosis studies: The molecular effect of compound it was evaluated by investigating its apoptotic (FIG. 5) and cell cycle arresting potentials (FIGS. 6A and 6B). Compound it arrests the cells at G0/G1 phase in MCF-7 cells (>15%) with respect to control cells after 16, 24, 48, and 72 hours of treatment.
Cell cycle arresting potentials of compound it were analyzed by an already established protocol with minor modifications. In brief, 3×10^6 cells of MCF-7, SKBR3, and HCT116 were seeded and incubated overnight in a T75 cm^2 flask before treating with IC50 dose of compound it for […]. The cells which were devoid of any treatments served as controls for each group. After respective treatment hours, the cells were washed two times with PBS and fixed with ice cold ethanol (70%) overnight. The cells were then washed two times with cold PBS and 1×10^6 cells were then counted and incubated with 1 ml RNAase (100 μg/mL) for 30 min at 37° C. The cell pellet was further added with 200 μl of propidium iodide (50 μg/mL) and immediately analyzed by a flow cytometer (BD, Accuri C6).

[3] = tested on: tubulin; test: Tubulin polymerization / microtubule formation (immunofluorescence and kit method); settings: in comparison to colchicine and taxol (positive controls); FIGS. 4A and 4B
Description: as §1
An immunofluorescence method is used for detecting tubulin polymerization effect of compound 1t. The cells (5×10^4/well) were plated overnight on coverslips on a six well plate and treated with IC50 concentration of compound 1t, taxol and colchicine for 24 hours. After treatment, the cells were rinsed twice with PBS, fixed with 3.7% paraformaldehyde, and permeabilized with 0.1% Triton X-100. The cells were then blocked with 1% BSA in PBS for 1 hour before further incubation with anti-p-tubulin mouse monoclonal antibody overnight at 4° C. (Cell Signaling, San Francisco, CA). […]
Tubulin polymerization was measured in vitro using the Tubulin Polymerization Assay kit (Cytoskeleton, Denver, CO). […] The polymerization of tubulin was monitored as fluorescence at 37° C. for 60 min, and the reading speed was programmed at 1 cycle/min with excitation and emission wavelengths of 360 and 450 nm, respectively, using the Varioskan® Flash spectral scanning multimode reader (Thermo Fisher Scientific™). […]

[4] = tested on: MCF7; test: Full dose-response, survival of cancer cell line (SRB assay); settings: Homo sapiens, breast cancer, 48 hours of drug treatment, average of three individual experiments
Description: (§2) Dulbecco's Modified Eagles Medium (DMEM), RPMI 1640 medium and propidium iodide (PI) were purchased from Sigma Aldrich (Darmstadt, Germany). For western blot, the antibodies; c-Myc, p^53, p^21, Bax, Bid, BclxL, GAPDH, caspase-3, caspase-9, p-ATM, p-ATR, p-Chk1, p-Chk2, p-P^53, and p-H2AX along with respective mouse/rabbit secondary antibodies were purchased from Cell Signaling Technology (Danvers, MA, USA). FITC Annexin V Apoptosis kit was purchased from BD Biosciences (New Jersey, USA). All other chemicals and solvents used were of standard analytical grade. The stock solutions of SIMR compounds were made in 100% DMSO and working solutions for treatments never exceeded >1% DMSO. The cell lines were gifted from Radiobiology and Experimental Radio Oncology lab, University Cancer Center, Hamburg University, Hamburg, Germany. F180 and HCT116 cells were cultured in DMEM media while MCF-7 and SKBR3 cells were cultured in RPMI along with 10% FBS and 5% CO2 in a humidified incubator at 37° C. The cells were grown on polystyrene T-75 (75 cm^2) culture flasks and all the experiments were performed at ˜70% cell confluency.
(§3) SRB assay was performed on DU-143 and MCF-7 cells in order to find out the sub-lethal dosage (IC50) of the synthesized compounds based on reported method with minor modifications. Briefly, 1×10^4 cells were seeded in a 96-well plate overnight and were treated with different concentrations of compounds and incubated further for 48 hours. The wells which were devoid of any treatment served as controls. After the treatment time, the plates were incubated with 50% trichloroacetic acid (TCA) at 4° C. for 1 hour. The cells were then washed, dried and exposed to 1% acetic acid for short period. Two hundred microliters of 10 mMtris base solution was then added with 10 min incubation after drying the plates and the OD was read at 492 nm by using a Multiskan™ GO (Thermo Scientific, USA) microplate Spectrophotometer.

[5] = tested on: SKBR3; test: as above; settings: Homo sapiens, SK-BR-3; breast cancer; 48 hours of drug treatment; average of three individual experiments
Description: as §2, §3

[6] = tested on: HCT116; test: as above; settings: Homo sapiens, HCT-116; colon cancer; 48 hours of drug treatment; average of three individual experiments
Description: as §2, §3

CC1(C)[C@H]2COc3ccc4ccccc4c3[C@H]2N=C2SC(c3ccccc3)=C(c3ccccc3)N21 [Compound 1t]
Sensitivity of G2/M-arrested cells versus asynchronous cells ([1]; MCF7 cells synchronized at specific phases of the cell cycle): more sensitive | Cells arrested at G2/M phase ([1]; synchronized MCF7 cells): 18.5% | Cells arrested at G0/G1 phase with respect to control cells [2]: > 15% | Inhibition of microtubule formation [3]: strong inhibition | IC50 [4]: 1910 nM | IC50 [5]: 1900 nM | IC50 [6]: 1500 nM
